The values that follow are results of earlier work, collected in patent US20100056546A1, “SULFONYLUREA INHIBITORS OF ATP-SENSITIVE POTASSIUM CHANNELS” (Auspex Pharmaceuticals, Inc., priority 2008, published 2010).

The conditions of this data set: compared with glipizide; Ambrogi et al. 1972.

Take `Cc1cnc(C(=O)NCCc2ccc(S(=O)(=O)NC(=O)N[C@H]3CCC[C@@H](O)C3)cc2)cn1` (relative stereo) [cis-3-hydroxy-glipizide]: the “activity relative to the parent compound” value was “significantly less active”.

With `Cc1cnc(C(=O)NCCc2ccc(S(=O)(=O)NC(=O)N[C@H]3CC[C@H](O)CC3)cc2)cn1` [trans-4-hydroxy-glipizide], the “activity relative to the parent compound” value was “significantly less active”.
